Test results reported in patent publication US20240082406A1, “BENZOHETEROCYCLE SUBSTITUTED TETRAHYDROISOQUINOLINE COMPOUND” (SHANGHAI JEMINCARE PHARMACEUTICAL CO., LTD, priority 2020, published 2024).

Experiments:
Sprague-Dawley rats [1] = assay: Inhibition of phosphate and sodium absorption in the intestine of rats by a single dose; format: in vivo, rat; conditions: normal rats
Procedure: Compound D1-P1-S was evaluated by measuring urinary phosphorus, urinary sodium concentration and fecal form.
(§1) Six-week-old Sprague-Dawley rats were purchased from Beijing Vital River Laboratory Animal Technology Co., Ltd. Two animals per cage were placed in SPF class animal rooms for acclimatization for about a week. Throughout the study period, animals were fed feed and water freely and the light cycle was 12 h light/12 h dark. Animal groups: vehicle group, n=5; tenapanor 0.3 mg/kg group, n=5; D1-P1-S 0.03 mg/kg group, n=5; D1-P1-S 0.1 mg/kg, n=5; D1-P1-S 0.3 mg/kg, n=5; D1-P1-S1.0 mg/kg, n=5.
On the day of the experiment, after 8 hours of fasting, the animals were administered the test compound or solvent (0.5% Tween 80+99.5% distilled water) by gavage. The animals were then transferred into metabolic cages for single-cage feeding, and the feed was restored. After 16 hours of administration, urine samples were collected and food consumption was recorded, and the fecal form in the collection funnel was evaluated by two independent observations. Standard for fecal form score: 1, normal pellets; 2, slightly soft feces (pellets adhered to the side wall of the collector due to moisture); 3, soft feces (loss the normal shape of the pellets); 4, loose and amorphous (completely loss shape, with blot pattern); 5, diarrhea (watery feces). Fecal form score (FFS) in rats was determined by averaging two independent observation scores for all rats within the same group (n=5); the vehicle group mean was 1.
The urine was centrifuged at 3220 g for 5 minutes at 4° C., and the urinary phosphorus concentration (phosphomolybdic acid UV endpoint colorimetric method) and urinary sodium concentration (ion selective electrode method) were measured.
(§2) Results were indicated as mean±standard error (Means±SEM). Urinary phosphorus excretion amount (or urinary sodium excretion amount) in rats was standardized corrected against respective dietary phosphorus (or sodium) intake, and the formula was: standardized correction value of urinary phosphorus excretion amount (indicated as nP)=urinary phosphorus excretion amount÷dietary phosphorus intake amount; standardized correction value of urinary sodium excretion amount (indicated as nNa)=urinary sodium excretion amount÷dietary sodium intake amount; fecal form score was analyzed by monofactorial variance, and verified by non-parametric test. *, p<0.05; **, p<0.01; * p<0.001; ****, p<0.0001.

Sprague-Dawley rats [2] = assay: Effects of multiple administrations on serum phosphorus concentration in rats; format: in vivo, rat; conditions: for 24 h nP, course: after 15 days
Procedure: Compound D1-P1-S was evaluated by measuring serum phosphorus concentration, urinary phosphorus, urinary sodium concentration and fecal form in rats.
as §1, with “Tenapanor 0.05” for “tenapanor 0.3 mg/kg group, n=5; D1-P1-S 0.03 mg/kg group, n=5; D1-P1-S 0.1”, “0.01” for “0.3”, “D1-P1-S 0.05 mg/kg, n=5; D1-P1-S 0.5 mg/kg, n=5; D1-P1-S 1.0” for “D1-P1-S1.0”
After the start of the experiment, the feeding rhythm of the rats was adjusted to diurnal feeding by fasting overnight for 16 hours and recovering feed for 8 hours during the day. After the administration started, the test compound or the solvent (0.5% Tween 80+99.5% distilled water) was gavaged twice a day during the feeding period, with an interval of 4 hours, for 14 consecutive days. Animal body weight and food consumption were measured every day, serum phosphorus concentration (including baseline value before administration), 24-hour urinary phosphorus excretion amount, and 24-hour urinary sodium excretion amount were measured 1-2 times a week, and feces form in the collection funnel was scored (through two independent observations to assess fecal form). Standard for fecal form score: 1, normal pellets; 2, slightly soft feces (pellets adhered to the side wall of the collector due to moisture); 3, soft feces (loss the normal shape of the pellets); 4, loose and amorphous (completely loss shape, with blot pattern); 5, diarrhea (watery feces). Fecal form score (FFS) in rats was determined by averaging two independent observation scores for all rats within the same group (n=5); the vehicle group mean was 1.
After standing at room temperature for 2 hours, the blood was centrifuged at 4500 g for 10 minutes at 4° C.; and the urine was centrifuged at 3220 g for 5 minutes at 4° C., and the serum phosphorus concentration and urinary phosphorus concentration (phosphomolybdic acid UV endpoint colorimetric method), urinary sodium concentration (indirect ion electrode method) were measured.
as §2, with “error (Means±SEM), n=5 animals/group.” for “error (Means±SEM).”, “by two-way” for “by monofactorial”, “p<0.01; ***,” for “p<0.01; *”, “****, p<[…].” for “****, p<0.0001.”

[3] = 1 day of treatment at 0.01, 0.05, 0.5 and 1.0 mg/kg

CN1Cc2c(Cl)cc(Cl)cc2C(c2ccc3cn(CCOCCOCCNC(=O)NCCCCNC(=O)NCCOCCOCCn4cc5ccc([C@@H]6CN(C)Cc7c(Cl)cc(Cl)cc76)cc5n4)nc3c2)C1 (stereo partly drawn) [Embodiment D1-P1-S]
urinary phosphorus excretion amount, dose dependence (Sprague-Dawley rats [1]; single gavage 0.03-1.0 mg/kg, urine collected after 16 hours): dose-effect relationship
urinary sodium excretion amount (Sprague-Dawley rats [1]; single gavage, 16 h urine): significantly reduce
urinary phosphorus excretion amount (Sprague-Dawley rats [1]; single gavage, doses of 0.3 mg/kg and 1.0 mg/kg, 16 h urine): significantly reduce
effect in reducing urinary phosphorus excretion amount compared with Tenapanor (Sprague-Dawley rats [1]; single gavage, same dose (0.3 mg/kg)): better than Tenapanor
water content in rat feces (fecal form) (Sprague-Dawley rats [1]; single gavage, with increasing dose): tendency of increasing
24 h nNa (urinary sodium excretion / dietary sodium intake) vs solvent group (Sprague-Dawley rats [2]; [3]): decreased significantly
24 h nP (urinary phosphorus excretion / dietary phosphorus intake) vs solvent group (Sprague-Dawley rats [2]; [3]): tended to decrease
fecal form score vs solvent control (Sprague-Dawley rats [2]; 1 day of treatment at 0.05, 0.5 and 1.0 mg/kg): significantly increased
24 h nP vs solvent group (Sprague-Dawley rats [2]; 1 day of treatment, 1.0 mg/kg): significantly decreased
24 h nP vs solvent group (Sprague-Dawley rats [2]; 10 days of treatment at 0.01, 0.05, 0.5 and 1.0 mg/kg): decreased significantly
24 h nNa (Sprague-Dawley rats [2]; after 10 days of treatment, 0.01 mg/kg and 0.05 mg/kg): increasing trend
24 h nP, course (Sprague-Dawley rats [2]): tended to be stable
24 h nP, course (Sprague-Dawley rats [2]; low dose group (0.01 mg/kg)): tended to increase
serum phosphorus, course after 10 days (Sprague-Dawley rats [2]; all dose groups except the highest dose group of 1.0 mg/kg): tended to be stable
serum phosphorus concentration vs solvent control (Sprague-Dawley rats [2]; gavage twice a day, 0.5 mg/kg or 1.0 mg/kg for 4 days): significantly decreased
loose feces (Sprague-Dawley rats [2]; high doses of 0.5 mg/kg and 1.0 mg/kg, observed less often as administration continued): more severe loose feces
loose feces (Sprague-Dawley rats [2]; low dose of 0.01 mg/kg): no rats had loose feces
serum phosphorus concentration vs solvent control (Sprague-Dawley rats [2]; twice a day, 10 days of treatment at 0.01, 0.05, 0.5, 1.0 mg/kg): decreased significantly
